Measurements as given in US5475026A, “Agent for treating hepatic diseases” (Toray Industries, Inc., priority 1991, dated 1995).
Structures can show the parent of a compound that is named as a salt.

Experiments:
[1] = increase in lipid peroxide level in the blood induced by carbon tetrachloride in SD rats (Example 3); assay type: in vivo, SD male rats; details: for Lipid Peroxides in serum / GPT level in serum / GOT level in serum: dose not given; for Lipid Peroxides in serum: control 7.10 ± 1.73, non-treated 3.40 ± 0.21; for GPT level in serum: control 3709 ± 406, non-treated 21 ± 2; for GOT level in serum: control 14689 ± 1577, non-treated 95 ± 5
Method: Using 7 week-old SD male rats, each group consisting of 6 rats, the effectiveness of beraprost by oral administration against the increase in the lipid peroxide level in the blood induced by carbon tetrachloride was tested. The sodium salt of beraprost was used as the test compound. 12.5% carbon tetrachloride solution in olive oil was intraperitoneally administered in a dose of 2 ml/kg to the rats which had been fasted for 24 hours. After the administration of the carbon tetrachloride solution, the rats were fasted for another 24 hours and then the levels of lipid peroxide, GOT and GPT in serum were measured. The test compound was administered one hour before (Test Group 1) or 6 hours after (Test Group 2) the administration of the carbon tetrachloride solution. As a control group, one group was treated in the same manner as described above except that the sodium salt of beraprost was not administered.

[2] = Acute Toxicity Test (Example 5); parameters: species or system rats; details: rat, in vivo, 14 days, parentheses: 95% reliable limit, Litchfield-Wilcoxon Method
Method: (§1) Acute toxicity test was carried out using rats.
(§2) *Litchfield-Wilcoxon Method (see J. Pharmacol. Expl. Therap. Vol. 96, p.
(§3) The numbers in parentheses indicate 95% reliable limit.

rats = test: Acute Toxicity Test (Example 5); details: rat, in vivo
Method: as §1, §2, §3

[3] = hepatic disorder induced by D-galactosamine in SD rats (Example 2); assay type: in vivo, SD male rats; details: oral
Method: Using 7 week-old SD male rats, the effectiveness of beraprost by oral administration against the hepatic disorder induced by D-galactosamine was tested. As the test compound, the sodium salt of beraprost was used. The test compound was administered in a dose of 0.3 mg/kg per each time at one hour before and 6 hours after the administration of D-galactosamine. D-galactosamine was subcutaneously administered in a dose of 1 g/kg. Forty eight hours after the administration of D-galactosamine, the GOT and glutamic acid-pyruvic acid transaminase (hereinafter referred to as "GPT") levels in serum, and the content of triglyceride in the livers were measured.
As a control group, one group was treated in the same manner as described above except that sodium salt of beraprost was not administered.

[4] = hepatic disorder induced by carbon tetrachloride in SD rats, serum GOT (Example 1); assay type: in vivo, Sprague-Dawley male rats; details: 0.3 mg/kg; for GOT level in serum: 24 h after
Method: Using 7 week-old Sprague-Dawley (hereinafter referred to as "SD") male rats, the effectiveness of beraprost against hepatic disorder induced by carbon tetrachloride was tested employing two administration routes, that is, oral and intraperitoneal administrations. Each group consisted of 6 rats. The test compound was the sodium salt of beraprost. The test compound was administered to the rats. which had been fasted for 24 hours, One hour after beraprost administration, 12.5% carbon tetrachloride solution in olive oil was administered in a dose of 2 ml/kg. The carbon tetrachloride solution was intraperitoneally administered to the rats to which the test compound was orally administered. The carbon tetrachloride solution was orally administered to the rats to which the test compound was intraperitoneally administered. After the administration of the carbon tetrachloride solution, the rats were fasted for 24 hours, and the glutamic acid-[…] transaminase (hereinafter referred to as "GOT") level in serum was measured. As a control group, one group was treated in the same manner as described above except that the sodium salt of beraprost was not administered. The results are shown in […]

[5] = disorder caused by liver ischemia-recirculation in SD rats (Example 4); assay type: in vivo, SD male rats; details: oral, 30 minutes before ischemia; for GPT level in serum: two hours after recirculation, control 624
Method: Using 8-10 week-old SD male rats, the effectiveness of beraprost by oral administration against the disorder caused by liver ischemia-recirculationwas tested. The sodium salt of beraprost was used as the test compound. The test compound was administered 30 minutes before the induction of liver ischemia. Liver ischemia was induced by ventrotomy under anesthesia and closing the hepatic artery in the outer left leaf and the portal vein with clips. One hour after the clipping, the clips were removed to reopen the vessels. Two hours after recirculation, the GPT level in serum was measured to evaluate the degree of disorder.
As a control group, one group was treated in the same manner as described above except that distilled water was administered in place of sodium salt of beraprost.

[6] = oral, one hour before or 6 hours after carbon tetrachloride
[7] = 0.3 mg/kg twice, vs control group
[8] = Test Group 1: oral, one hour before carbon tetrachloride, 24 h after
[9] = Test Group 2: oral, 6 hours after carbon tetrachloride, measured 24 h after carbon tetrachloride

## CC#CCC(C)[C@H](O)/C=C/[C@@H]1[C@H]2c3cccc(CCCC(=O)O)c3O[C@H]2C[C@H]1O (relative stereo) [beraprost, (±)-(1R*,2R*, 3aS*,8bS*)-2,3,3a,8b-tetrahydro-2-hydroxy-1-[(E)-(3S*)-3-hydroxy-4methyl-1-ocetene-6-inyl]-1H-cyclopenta[b]benzofuran-5-butyric acid]
[1]; [6]
  decrease in GOT (in words): significant decrease
  decrease in GPT (in words): significant decrease
  decrease in lipid peroxide level in the blood (in words): significant decrease
[2]; iv, female
  LD50 at 336 h: 13 mg/kg
[2]; iv, male
  LD50 at 336 h: 18 mg/kg
[2]; po, female
  LD50 at 336 h: 12 mg/kg
[2]; po, male
  LD50 at 336 h: 15 mg/kg
[2]; sc, subcutaneous, female
  LD50 at 336 h: 7 mg/kg
[2]; sc, subcutaneous, male
  LD50 at 336 h: 13 mg/kg
rats
  pathological symptoms: slight to medium congestion in lung, slight to medium bleeding in stomach glands and slight small intestine catarrh
  side effects: side effects are observed only at very high dose
[3]; [7]
  decrease in amount of triglycerides in the liver (in words): significant decreases
  decrease in serum GOT (in words): significant decreases
  decrease in serum GPT (in words): significant decreases

## CC#CCC(C)[C@H](O)/C=C/[C@@H]1[C@H]2c3cccc(CCCC(=O)O)c3O[C@H]2C[C@H]1O (relative stereo) [sodium salt of beraprost]
[4]; intraperitoneal, one hour before carbon tetrachloride (oral), control 11943 ± 1216
  GOT level in serum: 1889 ± 506 unit/l
[4]; oral and intraperitoneal, vs control
  decrease in GOT (in words): significant decrease in GOT was observed
[4]; oral, one hour before carbon tetrachloride (intraperitoneal), control 15647 ± 1588
  GOT level in serum: 3820 ± 642 unit/l
[1]; [8]
  Lipid Peroxides in serum: 2.44 ± 0.34 µM
  GPT level in serum: 1285 ± 344 unit/l
  GOT level in serum: 4428 ± 1649 unit/l
[1]; [9]
  Lipid Peroxides in serum: 2.82 ± 0.52 µM
  GPT level in serum: 1713 ± 258 unit/l
  GOT level in serum: 7672 ± 1834 unit/l
[5]; 0.03 mg/kg
  GPT level in serum: 617 unit/l
[5]; 0.1 mg/kg
  GPT level in serum: 540 unit/l
[5]; 0.3 mg/kg
  GPT level in serum: 427 unit/l
[5]; 0.03-0.3 mg/kg
  decrease in GPT level in serum (in words): a decrease in GPT level in serum was observed
[3]; 0.3 mg/kg one hour before and 6 hours after D-galactosamine, 48 h, control 42.4 ± 6.0, non-treated 14.1 ± 0.6
  Triglyceride content in the liver: 12.4 ± 0.7 mg/g tissue
[3]; 0.3 mg/kg one hour before and 6 hours after D-galactosamine, 48 h, control 2552 ± 375, non-treated 79 ± 5
  GPT level in serum: 1356 ± 187 unit/l
[3]; 0.3 mg/kg one hour before and 6 hours after D-galactosamine, 48 h, control 5641 ± 858, non-treated 154 ± 7
  GOT level in serum: 3506 ± 377 unit/l
